Data as given in ChEMBL document CHEMBL6178002, “Identification of a RANKL/TNF-α Dual-Inhibitor as a Potential Disease-Modifying Agent for the Treatment of Knee Osteoarthritis” (J Med Chem, 2025).
pIC50: −log10 of the molar value.

Columns and labels:
[1] = Cytotoxicity against bone marrow macrophage cells (unknown origin) assessed as cell viability at 10 uM incubated for 24 hrs by CCK8 assay relative to control; assay type: toxicity, cell-based; conditions: read-out: Activity
[2] = Inhibition of RANKL/M-CSF-induced osteoclastogenesis in male C57/BL6 mouse bone marrow cells at 1 uM incubated for 5 to 7 days by TRAP staining based analysis relative to control; assay type: functional; conditions: C57/BL6, Bone marrow cell, time 5-7 day
[3] = Inhibition of RANKL/M-CSF-induced osteoclastogenesis in male C57/BL6 mouse bone marrow cells at 0.1 uM incubated for 5 to 7 days by TRAP staining based analysis relative to control; assay type: functional; conditions: C57/BL6, Bone marrow cell, time 5-7 day
[4] = Anti-osteoclastogenic activity in bone marrow cells (unknown origin) assessed as inhibition of RANKL/M-CSF-induced osteoclast differentiation measured after 5 days by TRAP staining based analysis; assay type: functional; conditions: Bone marrow cell, 120 h

CC(C)c1cccc(C(C)C)c1NC(=O)[C@@H]1Cc2c3ccccc3[nH]c2[C@]2(C[C@H](c3ccccc3)C2)N1
viability at 24 h, 10 µM [1]: 141%
inhibition at 1 µM [2]: 62%
inhibition at 0.1 µM [3]: 20.7%

COc1cccc(OC)c1NC(=O)[C@@H]1Cc2c3ccccc3[nH]c2[C@]2(C[C@H](c3ccccc3)C2)N1
viability at 24 h, 10 µM [1]: 95.7%
inhibition at 1 µM [2]: 35.9%
inhibition at 0.1 µM [3]: 11.5%

CCc1ccc(N2CC3(C2)N[C@H](C(=O)Nc2c(C)cccc2C)Cc2c3[nH]c3ccccc23)cc1
viability at 24 h, 10 µM [1]: 101%
inhibition at 1 µM [2]: 35.9%
inhibition at 0.1 µM [3]: 25.1%

Cc1ccccc1NC(=O)[C@@H]1Cc2c3ccccc3[nH]c2[C@]2(C[C@H](c3ccccc3)C2)N1
viability at 24 h, 10 µM [1]: 112%
inhibition at 1 µM [2]: 66.5%
inhibition at 0.1 µM [3]: 16.5%

Cc1cccc(C)c1NC(=O)[C@H]1Cc2c3ccccc3[nH]c2[C@]2(C[C@H](c3ccccc3)C2)N1
viability at 24 h, 10 µM [1]: 105%
inhibition at 1 µM [2]: 45.7%
inhibition at 0.1 µM [3]: 12.3%

COc1cccc(OC)c1NC(=O)[C@@H]1Cc2c3ccccc3[nH]c2[C@]2(C[C@@H](c3ccccc3)C2)N1
viability at 24 h, 10 µM [1]: 70.2%
inhibition at 1 µM [2]: 32.3%
inhibition at 0.1 µM [3]: 16.5%

O=C(Nc1ccccc1F)[C@@H]1Cc2c3ccccc3[nH]c2[C@]2(C[C@H](c3ccccc3)C2)N1
viability at 24 h, 10 µM [1]: 63.6%
inhibition at 1 µM [2]: 40.7%
inhibition at 0.1 µM [3]: 17.6%

Cc1cccc(C)c1NC(=O)[C@H]1Cc2c([nH]c3ccccc23)C2(CN(c3ccccc3)C2)N1
viability at 24 h, 10 µM [1]: 119%
inhibition at 1 µM [2]: 78.3%
inhibition at 0.1 µM [3]: 42.9%

Cc1cccc(C)c1NC(=O)[C@@H]1Cc2c([nH]c3ccccc23)C2(CN(c3ccc(F)cc3)C2)N1
viability at 24 h, 10 µM [1]: 119%
inhibition at 1 µM [2]: 57.4%
inhibition at 0.1 µM [3]: 23.1%

Cc1ccccc1NC(=O)[C@@H]1Cc2c3ccccc3[nH]c2[C@]2(C[C@@H](c3ccccc3)C2)N1
viability at 24 h, 10 µM [1]: 102%
inhibition at 1 µM [2]: 54.4%
inhibition at 0.1 µM [3]: 23%

Cc1cccnc1NC(=O)[C@@H]1Cc2c3ccccc3[nH]c2[C@]2(C[C@@H](c3ccccc3)C2)N1
viability at 24 h, 10 µM [1]: 160%
inhibition at 1 µM [2]: 58.3%
inhibition at 0.1 µM [3]: 35.9%

O=C(Nc1ccccn1)[C@@H]1Cc2c3ccccc3[nH]c2[C@]2(C[C@H](c3ccccc3)C2)N1
viability at 24 h, 10 µM [1]: 149%
inhibition at 1 µM [2]: 44.2%
inhibition at 0.1 µM [3]: 13.1%

Cc1cccc(C)c1NC(=O)[C@H]1Cc2c3ccccc3[nH]c2[C@]2(C[C@@H](c3ccccc3)C2)N1
viability at 24 h, 10 µM [1]: 116%
inhibition at 1 µM [2]: 23.8%

CN(C)c1ccccc1NC(=O)[C@@H]1Cc2c3ccccc3[nH]c2[C@]2(C[C@@H](c3ccccc3)C2)N1
viability at 24 h, 10 µM [1]: 109%
inhibition at 1 µM [2]: 89.9%
inhibition at 0.1 µM [3]: 32.2%

CC(C)c1ccccc1NC(=O)[C@@H]1Cc2c3ccccc3[nH]c2[C@]2(C[C@@H](c3ccccc3)C2)N1
viability at 24 h, 10 µM [1]: 116%
inhibition at 1 µM [2]: 62.5%
inhibition at 0.1 µM [3]: 26.5%

Cc1cc2occ(CN(C)CCN(C)Cc3cn(-c4cccc(C(F)(F)F)c4)c4ccccc34)c(=O)c2cc1C
pIC50 [4]: 6.00
viability at 24 h, 10 µM [1]: 3.8%
inhibition at 1 µM [2]: 56.1%
inhibition at 0.1 µM [3]: 18.4%

Cc1cccc(C)c1NC(=O)[C@@H]1Cc2c([nH]c3ccccc23)[C@@](C)(CCc2ccccc2)N1
viability at 24 h, 10 µM [1]: 106%
inhibition at 1 µM [2]: 52.1%
inhibition at 0.1 µM [3]: 23.4%

Cc1cccc(C)c1NC(=O)[C@@H]1Cc2c([nH]c3ccccc23)[C@](C)(CCc2ccccc2)N1
viability at 24 h, 10 µM [1]: 117%
inhibition at 1 µM [2]: 48.3%
inhibition at 0.1 µM [3]: 37.3%

CN(C)c1ccccc1NC(=O)[C@@H]1Cc2c3ccccc3[nH]c2[C@]2(C[C@H](c3ccccc3)C2)N1
viability at 24 h, 10 µM [1]: 66.3%
inhibition at 1 µM [2]: 58.4%
inhibition at 0.1 µM [3]: 10.2%

Cc1cccc(C)c1NC(=O)[C@@H]1Cc2c3ccccc3[nH]c2[C@]2(C[C@@H](c3ccccc3)C2)N1
viability at 24 h, 10 µM [1]: 105%
inhibition at 1 µM [2]: 55.1%
inhibition at 0.1 µM [3]: 36.2%

CC(C)c1cccc(C(C)C)c1NC(=O)[C@@H]1Cc2c3ccccc3[nH]c2[C@]2(C[C@@H](c3ccccc3)C2)N1
viability at 24 h, 10 µM [1]: 115%
inhibition at 1 µM [2]: 66.9%
inhibition at 0.1 µM [3]: 23.6%

Cc1cccnc1NC(=O)[C@@H]1Cc2c3ccccc3[nH]c2[C@]2(C[C@H](c3ccccc3)C2)N1
viability at 24 h, 10 µM [1]: 159%
inhibition at 1 µM [2]: 49.8%
inhibition at 0.1 µM [3]: 16.7%

Cc1cccc(C)c1NC(=O)[C@@H]1Cc2c([nH]c3ccccc23)C2(CN(c3ccc(C#N)cc3)C2)N1
viability at 24 h, 10 µM [1]: 105%
inhibition at 1 µM [2]: 48.3%
inhibition at 0.1 µM [3]: 37.3%

Cc1cccc(C)c1NC(=O)[C@@H]1Cc2c([nH]c3ccccc23)C2(CCN(c3ccccc3)CC2)N1
viability at 24 h, 10 µM [1]: 120%
inhibition at 1 µM [2]: 30.2%

O=C(Nc1ccccn1)[C@@H]1Cc2c3ccccc3[nH]c2[C@]2(C[C@@H](c3ccccc3)C2)N1
viability at 24 h, 10 µM [1]: 127%
inhibition at 1 µM [2]: 41.2%
inhibition at 0.1 µM [3]: 16.1%

CC(C)c1ccccc1NC(=O)[C@@H]1Cc2c3ccccc3[nH]c2[C@]2(C[C@H](c3ccccc3)C2)N1
viability at 24 h, 10 µM [1]: 103%
inhibition at 1 µM [2]: 37.5%
inhibition at 0.1 µM [3]: 12.7%

Cc1cccc(C)c1NC(=O)[C@@H]1Cc2c3ccccc3[nH]c2[C@]2(C[C@H](c3ccccc3)C2)N1
viability at 24 h, 10 µM [1]: 95.1%
inhibition at 1 µM [2]: 32.3%
inhibition at 0.1 µM [3]: 29.2%

COc1ccc(N2CC3(C2)N[C@H](C(=O)Nc2c(C)cccc2C)Cc2c3[nH]c3ccccc23)cc1
viability at 24 h, 10 µM [1]: 102%
inhibition at 1 µM [2]: 48.6%
inhibition at 0.1 µM [3]: 34.6%

Cc1cccc(C)c1NC(=O)[C@@H]1Cc2c([nH]c3ccccc23)C2(CN(c3cccnc3)C2)N1
viability at 24 h, 10 µM [1]: 107%
inhibition at 1 µM [2]: 52.5%
inhibition at 0.1 µM [3]: 11.5%

Cc1cccc(C)c1NC(=O)[C@@H]1Cc2c([nH]c3ccccc23)C2(CN(c3ccc(C(F)(F)F)cc3)C2)N1
viability at 24 h, 10 µM [1]: 117%
inhibition at 1 µM [2]: 43.7%
inhibition at 0.1 µM [3]: 15.4%

O=C(Nc1ccccc1F)[C@@H]1Cc2c3ccccc3[nH]c2[C@]2(C[C@@H](c3ccccc3)C2)N1
viability at 24 h, 10 µM [1]: 101%
inhibition at 1 µM [2]: 70.1%
inhibition at 0.1 µM [3]: 34.4%

Cc1cccc(C)c1NC(=O)[C@@H]1Cc2c([nH]c3ccccc23)C2(CN(c3ccc(S(C)(=O)=O)cc3)C2)N1
viability at 24 h, 10 µM [1]: 106%
inhibition at 1 µM [2]: 52.1%
inhibition at 0.1 µM [3]: 23.4%
